Ends that are not written are not given here. Peptide text beside a SMILES is read from it. * marks the point of attachment. Biotin = O=C1N[C@H]2[C@H](CS[C@H]2CCCCC(=O)*)N1
Columns and labels:
purified ANT = biological target: T1, purified ANT (Rattus norvegicus, UniProt Q05962); format: binding; conditions: for Kd: one ANT concentration only, 50 nM, read-out: relative affinities of ANT for the peptide; for binding to purified ANT: surface plasmon resonance
T1 sequence (Q05962 1-298): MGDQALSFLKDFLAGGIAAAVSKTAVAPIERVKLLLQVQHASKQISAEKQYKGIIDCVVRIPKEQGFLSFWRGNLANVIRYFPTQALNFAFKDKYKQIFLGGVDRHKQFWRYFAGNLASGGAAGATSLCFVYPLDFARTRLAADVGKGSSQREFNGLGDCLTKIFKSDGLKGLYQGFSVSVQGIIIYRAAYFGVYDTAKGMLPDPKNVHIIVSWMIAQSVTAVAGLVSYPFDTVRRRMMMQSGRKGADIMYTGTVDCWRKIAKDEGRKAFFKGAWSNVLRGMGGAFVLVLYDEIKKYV
Description: (§1) Sensor Chips SA (streptavidin coated sensor chips) were used for immobilisation of the different peptides. Tox1 was immobilised at a density of 0.7 ng/mm^2, Tox0 at a density of 3.7 ng/mm^2,. Ctrl Tox0 at a density of 1.4 ng/mm^2, Tox5 at a density of 1 ng/mm^2, Tox6 at a density of 1 ng/mm^2, Save 1 at a density of 1.3 ng/mm^2, and the control peptide at a density of 0.8 ng/mm^2. Association and dissociation kinetics of ANT and VDAC interactions were followed at a rate of 10 μL/min for 10 minutes (5 minutes association and 5 minutes dissociation). The ligand was regenerated with a 1 minute flux of KSCN 3M. The obtained sensorgrams were analysed by the B1Aeval 3.1 software using the method of double references (Myszka D.G. 2000. Kinetic, equilibrium and thermodynamic analysis of macromolecular interactions with BIACORE. Methods Enzymol. 323:325-340). From the sensorgrams with the ligands were first substracted the sensorgrams obtained with the corresponding analyte solvents. A second substraction was performed with the sensorgrams obtained with the control peptide ligand. The control peptide for the Tox and Save peptides was biot-H19C corresponding to the sequence of the β2-adrenergic receptor (Lebesgue D., Wallukat G., Mijares A., Granier C., Argibay J., and Hoebeke J. (1998) An agonist-like monoclonal antibody to the human β 2-adrenergic receptor. Eur.J. Pharmacol. 348:123-133). The control peptide for Tox0 was Ctr1 Tox0.

[1] = tested on: permeability transition pore (PTP); assay: Swelling of isolated mitochondria (large amplitude swelling, 90° light scattering); format: biochemical, rat; set-up: key to Induction of Mitochondrial swelling (sw): +++ rapid sw; ++ low sw; + very low sw; − no sw; conditions: for Induction of Mitochondrial swelling (sw): 5 μM, t 20 min
Description: Mitochondria are purified from rat liver, as described (Costantini et al., 1996), and resuspended in 250 mM sucrose +0.1 mM EGTA +10 mM -tris[hydroxymethyl]methyl-2-Aminoethanesulfonic acid, pH=7.4). For the induction of PT, mitochondria (0.5 mg protein per ml) are resuspended in PT buffer (200 mM sucrose, 10 mM Tris-MOPS (pH 7.4), 5 MM Tris-succinate, 1 mM Tris-phosphate, 2 μM rotenone, and 10 μM EGTA-Tris), and monitored in an F4500 fluorescence spectrometer (Hitachi, Tokyo, Japan) for the 90° light scattering of light (545 nm) to determine large amplitude swelling after addition of 2 mM atractyloside (Atr), 1 μM cyclosporin A (CsA; Novartis, Basel, Switzerland), 5 μM CaCl2, and/or 0.5 to 20 μM of pTarg-pTox or pTarg-pSave. For the determination of the ΔΨm, mitochondria (0.5 mg protein per ml) are incubated in a buffer supplemented with 1μM rhodamine 123 (Molecular Probes, Eugene, OR) and the dequenching of rhodamine fluorescence (excitation 505 nm, emission 525 nm) is measured as described (Shimizu et al., 1998). Supernatants from mitochondria (6800 g for 15 min; then 20 000 g for 1 h; 4° C.) are frozen at −80° C. until determination of apoptogenic activity on isolated nuclei, DEVD-afc cleaving activity, and immunodetection of cytochrome c and AIF. Cytochrome c and AIF are detected by means of a monoclonal antibody (clone 7H8.2C12, Pharmingen) and a polyclonal rabbit anti-serum (Susin et al. 1999) respectively.

purified VDAC = purified VDAC (Homo sapiens, UniProt P21796); assay: Surface plasmon resonance, immobilised peptides with purified VDAC; format: binding; conditions: for specific binding of VDAC: 50 nM VDAC
Description: as §1

Sequence of purified VDAC (P21796 whole entry, species assumed): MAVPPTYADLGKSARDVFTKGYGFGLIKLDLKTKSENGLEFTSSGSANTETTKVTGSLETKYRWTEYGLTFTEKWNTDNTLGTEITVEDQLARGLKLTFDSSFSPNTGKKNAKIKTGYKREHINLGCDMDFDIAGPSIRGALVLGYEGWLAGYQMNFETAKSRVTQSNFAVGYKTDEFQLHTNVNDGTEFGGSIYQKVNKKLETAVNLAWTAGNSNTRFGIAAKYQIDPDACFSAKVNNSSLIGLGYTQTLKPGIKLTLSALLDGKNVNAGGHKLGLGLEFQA

C[C@@H](O)[C@H](NC(=O)[C@H](CCCNC(=N)N)NC(=O)[C@H](CCCCN)NC(=O)[C@H](CC(=O)O)NC(=O)CNC(=O)CNC(=O)[C@H](CS)NC(=O)[C@H](CCCNC(=N)N)NC(=O)CNC(=O)[C@H](CC(N)=O)NC(=O)[C@H](CS)NC(=O)CCCC[C@@H]1SC[C@@H]2NC(=O)N[C@@H]21)C(=O)N[C@@H](CCC(N)=O)C(=O)N[C@@H](Cc1ccccc1)C(=O)N[C@@H](Cc1c[nH]c2ccccc12)C(=O)N[C@@H](CCCNC(=N)N)C(=O)N[C@@H](Cc1ccc(O)cc1)C(=O)N[C@@H](Cc1ccccc1)C(=O)N1CCC[C@H]1C(=O)NCC(=O)N[C@@H](CC(N)=O)C(=O)O [Tox5, Biot-CNGRC-GG-DKRTQFWRYFPGN (hANT2m)] (Biotin-CNGRCGGDKRTQFWRYFPGN-OH; N-terminus and C-terminus assumed)
Kd (purified ANT): 100 pM
binding to purified ANT (purified ANT): Binds Purified ANT
Induction of Mitochondrial swelling (sw) [1]: ++
specific binding of VDAC (purified VDAC): did not result in any specific binding

C[C@H](NC(=O)[C@H](Cc1ccccc1)NC(=O)[C@H](Cc1ccc(O)cc1)NC(=O)[C@H](CCCNC(=N)N)NC(=O)[C@H](Cc1c[nH]c2ccccc12)NC(=O)[C@H](Cc1ccccc1)NC(=O)[C@H](CCC(N)=O)NC(=O)[C@@H](NC(=O)[C@H](CCCNC(=N)N)NC(=O)[C@H](CCCCN)NC(=O)[C@H](CC(=O)O)NC(=O)[C@H](CCCNC(=N)N)NC(=O)[C@H](CCCNC(=N)N)NC(=O)[C@H](CCCNC(=N)N)NC(=O)[C@H](CCC(N)=O)NC(=O)[C@H](CCCNC(=N)N)NC(=O)[C@H](CCCNC(=N)N)NC(=O)[C@H](CCCCN)NC(=O)[C@H](CCCCN)NC(=O)[C@H](CCCNC(=N)N)NC(=O)CCCC[C@@H]1SC[C@@H]2NC(=O)N[C@@H]21)[C@@H](C)O)C(=O)NCC(=O)N[C@@H](CC(N)=O)C(=O)O [Save1, Biot-RKKRRQRRR-DKRTQFWRYFAGN (hANT2)] (Biotin-RKKRRQRRRDKRTQFWRYFAGN-OH; C-terminus assumed)
binding to purified ANT (purified ANT): Binds Purified ANT
specific binding of VDAC (purified VDAC): did not result in any specific binding

Biot-CNGRC-GG-CNGRC [Ctr2Tox1]
Induction of Mitochondrial swelling (sw) [1]: −

[Ca+2] [Ca 2+, reference compound]
Mitrochondrial swelling (sw) % ([1]; 100 μM): 100%

Biot-GG-HFRIGCRHSRIG [Ctr3Tox1]
Induction of Mitochondrial swelling (sw) [1]: +

Biot-CNGRC-GG-HFRIGCRHSRIG [Tox1]
binding to purified ANT (purified ANT): Binds Purified ANT
Induction of Mitochondrial swelling (sw) [1]: ++
association of VDAC with the peptide ligand (purified VDAC; VDAC concentrations ten times higher than ANT): extremely low association

C=C1[C@@H]2CC[C@H]3[C@]4(C)C[C@H](O[C@@H]5O[C@H](CO)[C@@H](OS(=O)(=O)O)[C@H](OS(=O)(=O)O)[C@H]5OC(=O)CC(C)C)C[C@@H](C(=O)O)[C@H]4CC[C@]3(C2)[C@H]1O [Atractyloside, atractyloside, reference compound]
Mitrochondrial swelling (sw) % ([1]; 600 μM): 110%

Biot-CNGRC-GG-HFAIGCRHSAIG (Biotin-CNGRCGGHFAIGCRHSAIG; cysteine pairing not given here) [Ctr1Tox1]
Induction of Mitochondrial swelling (sw) [1]: −

C[C@H](NC(=O)CCCC[C@@H]1SC[C@@H]2NC(=O)N[C@@H]21)C(=O)N[C@@H](CS)C(=O)N[C@@H](CC(=O)O)C(=O)N[C@@H](CS)C(=O)N[C@@H](CCCNC(=N)N)C(=O)NCC(=O)N[C@@H](CC(=O)O)C(=O)N[C@@H](CS)C(=O)N[C@@H](Cc1ccccc1)C(=O)N[C@@H](CS)C(=O)NCC(=O)NCC(=O)N[C@@H](CC(=O)O)C(=O)N[C@@H](CCCCN)C(=O)N[C@@H](CCCNC(=N)N)C(=O)N[C@H](C(=O)N[C@@H](CCC(N)=O)C(=O)N[C@@H](Cc1ccccc1)C(=O)N[C@@H](Cc1c[nH]c2ccccc12)C(=O)N[C@@H](CCCNC(=N)N)C(=O)N[C@@H](Cc1ccc(O)cc1)C(=O)N[C@@H](Cc1ccccc1)C(=O)N1CCC[C@H]1C(=O)NCC(=O)N[C@@H](CC(N)=O)C(=O)O)[C@@H](C)O [Tox6, Biot-ACDCRGDCFC-GG-DKRTQFWRYFPGN (hANT2m)] (Biotin-ACDCRGDCFCGGDKRTQFWRYFPGN-OH; N-terminus and C-terminus assumed)
Kd (purified ANT): 700 pM
binding to purified ANT (purified ANT): Binds Purified ANT
Induction of Mitochondrial swelling (sw) [1]: ++
specific binding of VDAC (purified VDAC): did not result in any specific binding

Reference: patent US20040265300A1, “Chimeric molecules containing a module able to target specific cells and a module regulating the apoptogenic function of the permeability transition pore complex (PTPC)” (priority 2001, published 2004)
